Laboratory results as given in patent publication US6111132A, “Compounds and methods for synthesis and therapy” (priority 1998, dated 2000).

Each compound was assayed against Neuraminidase Flu A (assay: Neuraminidase inhibition in vitro, Flu A).
Type: biochemical, influenza virus A
Description: Compositions of the invention are screened for inhibitory activity against neuraminidase by any of the conventional techniques for evaluating enzyme activity.
(§1) Useful in vitro screens have been described in detail and will not be elaborated here. However, von Itzstein, M. et al.; "Nature", 363(6428):418-423 (1993), in particular page 420, column 2, full paragraph 3, to page 421, column 2, first partial paragraph, describes a suitable in vitro assay of Potier, M.; et al.; "Analyt. Biochem.", 94:287-296 (1979), as modified by Chong, A. K. J.; et al.; "Biochem. Biophys. Acta", 1077:65-71 (1991); and Colman, P. M.; et al.; International Publication No. WO 92/06691 (Int. App. No. PCT/AU90/00501, publication date Apr. 30, 1992) page 34, line 13, to page 35, line 16, describes another useful in vitro screen.

Row | SMILES | IC50
1 | CCCCN(C)[C@@H]1C=C(C(=O)O)C[C@H](N)[C@H]1NC(C)=O [Compound 5b] | 180 nM
2 | CCC(CC)N(C)[C@@H]1C=C(C(=O)O)C[C@H](N)[C@H]1NC(C)=O [Compound 5c] | 6 nM
3 | CCC(CC)CN(C)[C@@H]1C=C(C(=O)O)C[C@H](N)[C@H]1NC(C)=O [Compound 5d] | 120 nM
4 | CC(=O)N[C@H]1[C@H](N(C)CCc2ccccc2)C=C(C(=O)O)C[C@@H]1N [Compound 5e] | 100 nM
5 | CC(=O)N[C@H]1[C@H](N(C)C2CCCCC2)C=C(C(=O)O)C[C@@H]1N [Compound 5f] | 200 nM
6 | CCCN(CC)[C@@H]1C=C(C(=O)O)C[C@H](N)[C@H]1NC(C)=O [Compound 5g] | 90 nM
7 | CCCCN(CC)[C@@H]1C=C(C(=O)O)C[C@H](N)[C@H]1NC(C)=O [Compound 5h] | 85 nM
8 | CCCN(CCC)[C@@H]1C=C(C(=O)O)C[C@H](N)[C@H]1NC(C)=O [Compound 5i] | 12 nM
9 | CCCN(CC1CC1)[C@@H]1C=C(C(=O)O)C[C@H](N)[C@H]1NC(C)=O [Compound 5j] | 50 nM
10 | CC(=O)N[C@H]1[C@H](N2CCCC2)C=C(C(=O)O)C[C@@H]1N [Compound 5k] | 400 nM
11 | CC(=O)N[C@H]1[C@H](N2CCCCC2)C=C(C(=O)O)C[C@@H]1N [Compound 5l] | 30 nM
12 | CC(=O)N[C@H]1[C@H](N2CCOCC2)C=C(C(=O)O)C[C@@H]1N [Compound 5m] | 200 nM
13 | CCC(CC)N[C@@H]1C=C(C(=O)O)C[C@H](N)[C@H]1NC(C)=O [Compound 12a] | 11.5 nM
14 | CCCN[C@@H]1C=C(C(=O)O)C[C@H](N)[C@H]1NC(C)=O [Compound 12b] | 200 nM

These compounds were tested against Neuraminidase Flu B (Influenza B virus, UniProt P03474) (assay: biochemical).
Description: Compositions of the invention are screened for inhibitory activity against neuraminidase by any of the conventional techniques for evaluating enzyme activity. Within the context of the invention, typically compositions are first screened for inhibition of neuraminidase in vitro and compositions showing inhibitory activity are then screened for activity in vivo.
as §1
Enzyme Inhibition: Using the methods of screening in vitro activity described above, the following activities were observed: […]

Sequence of Neuraminidase Flu B (P03474 whole entry): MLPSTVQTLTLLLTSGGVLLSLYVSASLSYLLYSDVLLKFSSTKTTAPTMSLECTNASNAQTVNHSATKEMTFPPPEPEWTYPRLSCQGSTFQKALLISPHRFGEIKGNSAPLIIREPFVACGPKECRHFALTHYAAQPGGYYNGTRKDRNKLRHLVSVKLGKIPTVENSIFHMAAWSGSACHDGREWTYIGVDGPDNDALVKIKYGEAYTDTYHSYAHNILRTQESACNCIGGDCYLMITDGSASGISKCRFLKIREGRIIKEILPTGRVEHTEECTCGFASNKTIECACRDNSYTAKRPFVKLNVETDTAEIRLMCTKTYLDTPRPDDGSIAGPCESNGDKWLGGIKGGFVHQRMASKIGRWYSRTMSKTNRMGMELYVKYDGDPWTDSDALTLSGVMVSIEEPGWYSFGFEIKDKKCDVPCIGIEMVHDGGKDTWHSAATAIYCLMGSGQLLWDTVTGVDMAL

Row | SMILES | IC50
15 | CC(=O)N[C@H]1[C@H](N2CCCCC2)C=C(C(=O)O)C[C@@H]1N [Compound 5l] | 3 nM
